Experimental data taken from patent US20070270493A1, “Composition with Preventive or Improvement Effect on Stress-Induced Brain Function Impairment and Related Symptoms or Diseases” (priority 2004, published 2007).

Tested on: mice subjected to restraint stress
Assay: Morris water maze learning test
Format: in vivo, male ICR mice
Details: mice after 6 hour restraint stress; TGA40S-containing diet from 3 weeks before, about 25 mg TGA40S (10 mg arachidonic acid) per mouse daily; five trials a day for 5 days; FIG. 1
Description: The experimental groups consisted of 56 two- to three-month-old male ICR mice, divided into a control diet group (27 mice) and a TGA40S-containing diet group (29 mice), with the control diet or TGA40S-containing diet shown in Table 1 being given to each group for 3 weeks. Each group was further divided into non-restrained groups (non-restrained control diet group (13), non-restrained arachidonic acid (ARA) diet group (15)) and restrained groups (restrained control diet group (14), restrained ARA diet group ([…])). The restraining was accomplished using a wire mesh restraining tube, once for a 6 hour period three weeks after the start of feeding. The control diet or TGA40S-containing diet shown in Table 1 continued to be fed to each group for the remaining experiment period. The TGA40S used for the TGA40S-containing diet was the product obtained in Example 1. Since the daily ingestion was approximately 5 g per mouse, the daily intake of TGA40S was 25 mg per mouse. Also, since the total fatty acids bonded to the arachidonic acid-containing oils or fats (triglycerides) prepared in Example 1 included 40 wt % arachidonic acid, the daily intake of arachidonic acid was 10 mg per mouse. […] The time required for the mouse to reach the escape platform (escape latency time) was recorded as the learning index.

SMILES: CCCCC/C=C\C/C=C\C/C=C\C/C=C\CCCC(=O)O [arachidonic acid]
- learning ability (escape latency time, time required to reach the escape platform): exhibits an improving effect against decline in learning ability or cognitive ability as a result of stress
